Among the data in patent publication US20020132817A1, “Heterocyclic compounds, their production and use” (priority 1998, published 2002) are IC50 and melting point values, retold here.

The target in one data set is T1, substance P receptor (Homo sapiens, UniProt P25103).
T1 construct: The receptor was prepared from human lymphoblast cells (IM-9); endogenous in cells; host or cells: IM-9 human lymphoblast cells (membrane preparation)
As to the kind of experiment: Radioligand receptor binding inhibitory activity using receptor from human lymphoblast cells (IM-9). Conditions: 125I-BHSP radioligand, receptor from IM-9 cells, 25° C. for 30 minutes. On the procedure:
Radioligand receptor binding inhibitory activity Binding inhibitory activity using receptor from human lymphoblast cells (IM-9)
The receptor was prepared from human lymphoblast cells (IM-9). IM-9 cells (2×10^5 cells/ml) were inoculated and incubated for 3 days (one liter), which was then subjected to centrifuge for 5 minutes at 500×g to obtain cell pellets. […] The residue was washed twice with 30 ml of the above-mentioned buffer, which was then preserved frozen (−80° C.) as a specimen of the receptor.
The specimen was suspended in a reaction buffer (50 mM Tri-HCl buffer (pH 7.4), 0.02% bovine serum albumin, 1 mM phenylmethylsulfonyl fluoride, […], […] bacitracin, 3 mM manganese chloride) and 100 ul portion was the suspension was used in the reaction. […] The amount of nonspecific binding was determined by adding substance P at a final concentration of 2×10^−6M. After the reaction, using a cell harvester (290 PHD, Cambridge Technology, Inc, U.S.A.), rapid filtration was carried out through a glass filter (GF/B, Whatman, U.S.A.) to stop the reaction. After washing three times with 250 ul of 50 mM of Tris-HCl buffer (pH 7.4) containing 0.02% bovine serum albumin, the radioactivity remaining on the filter was determined with a gamma counter. Before use, the filter was immersed in 0.1% polyethyleneimine for 24 hours and air-dried.

Usually IC50 stands for the concentration that gives 50% inhibition. The low end stands for inhibition by little substance, the high end for a need for much substance. The term melting point denotes the temperature of the solid-liquid transition.

T1 sequence (P25103 whole entry): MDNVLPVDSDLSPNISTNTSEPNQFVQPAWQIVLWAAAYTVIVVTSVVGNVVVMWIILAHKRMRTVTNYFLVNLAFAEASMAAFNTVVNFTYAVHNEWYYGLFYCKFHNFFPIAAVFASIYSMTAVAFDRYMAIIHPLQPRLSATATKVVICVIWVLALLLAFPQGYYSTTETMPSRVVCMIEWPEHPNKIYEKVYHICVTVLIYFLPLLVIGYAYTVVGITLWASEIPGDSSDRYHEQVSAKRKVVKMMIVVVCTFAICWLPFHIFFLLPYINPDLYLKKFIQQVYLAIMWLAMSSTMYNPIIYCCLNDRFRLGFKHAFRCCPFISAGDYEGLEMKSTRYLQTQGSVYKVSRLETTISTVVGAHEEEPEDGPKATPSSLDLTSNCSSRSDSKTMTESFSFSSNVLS

Turning to `COc1cc(CN2C[C@H](C)CCn3c(c(-c4ccc(Cl)cc4)c4cccnc4c3=O)C2=O)cc(OC)c1` [Example 13, (9R)-5-(4-chlorophenyl)-7-(3,5-dimethoxybenzyl)-6,7,8,9,10,11-hexahydro-9-methyl-6,13-dioxo-13H-[1,4]diazosino[2,1-g][1,7]napththylidine], the melting point lay within 229 to 230 °C. The compound also gave a half-maximal inhibitory concentration (IC50) at substance P receptor of 1.1 nM.

Compound `Cc1cnc2c(c1-c1ccccc1)C(=O)N(Cc1cc(C(F)(F)F)cc(C(F)(F)F)c1)C[C@H](C)CO2` [Reference Example 85, (S)-5-[3,5-Bis(trifluoromethyl)benzyl]-2,3,4,5-tetrahydro-3,8-dimethyl-6-oxo-7-phenyl-6H-pyrido[2,3-b][1,5]oxazocine] gave a melting point of 147 to 148 °C. This compound came in with a 50% inhibitory concentration (IC50) at substance P receptor of 0.36 nM.

In turn, `Cc1cc(-c2ccccc2)c2c([n+]1[O-])OCCN(Cc1cc(C(F)(F)F)cc(C(F)(F)F)c1)C2=O` [Reference Example 89, 4-[3,5-Bis(trifluoromethyl)benzyl]-2,3,4,5-tetrahydro-8-methyl-5-oxo-6-phenylpyrido[3,2-f][1,4]oxazepine 9-oxide] came in with a melting point of 181 to 183 °C. Further, at substance P receptor, the IC50 stood at 0.44 nM.

As to `CC(=O)OCc1cc(-c2ccccc2)c2c(n1)OCCN(Cc1cc(C(F)(F)F)cc(C(F)(F)F)c1)C2=O` [Reference Example 91, 8-Acetoxymethyl-4-[3,5-bis(trifluoromethyl)benzyl]-2,3,4,5-tetrahydro-5-oxo-6-phenylpyrido[3,2-f][1,4]oxazepine], the melting point fell in the range of 122 to 124 °C. At substance P receptor, this compound yielded a concentration for half-maximal inhibition (IC50) of 0.28 nM.

For the compound `CC(=O)OCc1cc(-c2ccccc2)c2c(n1)OCCCN(Cc1cc(C(F)(F)F)cc(C(F)(F)F)c1)C2=O` [Reference Example 92, 9-Acetoxymethyl-5-[3,5-bis(trifluoromethyl)benzyl]-2,3,4,5-tetrahydro-6-oxo-7-phenyl-6H-pyrido[2,3-b][1,5]oxazocine], the melting point was in the range of 156 to 157 °C. Besides, at substance P receptor, the concentration for half-maximal inhibition (IC50) is 0.74 nM.

The compound `O=C1c2c(-c3ccccc3)cc(CCl)nc2OCCN1Cc1cc(C(F)(F)F)cc(C(F)(F)F)c1` [Reference Example 93, 4-[3,5-Bis(trifluoromethyl)benzyl]-8-chloromethyl-2,3,4,5-tetrahydro-5-oxo-6-phenylpyrido[3,2-f][1,4]oxazepine] came in with a melting point of 183 to 184 °C. This compound also came in with an IC50 at substance P receptor of 0.42 nM.

On to `COCc1cc(-c2ccccc2)c2c(n1)OCCN(Cc1cc(C(F)(F)F)cc(C(F)(F)F)c1)C2=O` [Reference Example 94, 4-[3,5-Bis(trifluoromethyl)benzyl]-2,3,4,5-tetrahydro-8-methoxymethyl-5-oxo-6-phenylpyrido[3,2-f][1,4]oxazepine], for which the melting point is 139 to 140 °C. Also, the IC50 on substance P receptor turned out to be 0.17 nM.

As for `CN(C)Cc1cc(-c2ccccc2)c2c(n1)OCCN(Cc1cc(C(F)(F)F)cc(C(F)(F)F)c1)C2=O` [Reference Example 99, 4-[3,5-Bis(trifluoromethyl)benzyl]-8-dimethylaminomethyl-2,3,4,5-tetrahydro-5-oxo-6-phenylpyrido[3,2-f][1,4]oxazepine], the melting point was 186 to 188 °C. The compound further gave an IC50 at substance P receptor of 0.12 nM.
